PubChem BioAssay AID328 (DTP/NCI, 2004)
Where “and” joins values, the source holds several entries; their conditions need not be identical. Identical values can stand only once. Inconclusive results and toxic doses are left out.

Tested on: BDF1 mice, P388 leukemia ip, median survival T/C
Test: NCI In Vivo Anticancer Drug Screen. Data for tumor model P388 Leukemia (intraperitoneal) in B6D2F1 (BDF1) mice
Conditions: endpoint: median survival time, higher = longer survival
How it was run: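 Steps: implant the tumour, treat one group with compound and another with vehicle, record survival, then divide treated by control.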

[1] = dose: 200.0 mg/kg/injection, schedule: Q04DX003 (ip), vehicle: saline
[2] = dose: 100.0 mg/kg/injection, schedule: Q01DX009 (ip), vehicle: saline with Tween-80
[3] = dose: 100.0 mg/kg/injection, schedule: Q04DX003 (ip), vehicle: saline with Tween-80
[4] = dose: 200.0 mg/kg/injection, schedule: Q01DX009 (ip), vehicle: saline with Tween-80
[5] = dose: 200.0 mg/kg/injection, schedule: Q04DX003 (ip), vehicle: saline with Tween-80
[6] = dose: 400.0 mg/kg/injection, schedule: Q04DX003 (ip), vehicle: saline with Tween-80
[7] = dose: 100.0 mg/kg/injection, schedule: Q04DX003 (ip), vehicle: Klucel (hydroxypropylcellulose) (HPC)
[8] = dose: 200.0 mg/kg/injection, schedule: Q04DX003 (ip), vehicle: Klucel (hydroxypropylcellulose) (HPC)
[9] = dose: 400.0 mg/kg/injection, schedule: Q04DX003 (ip), vehicle: Klucel (hydroxypropylcellulose) (HPC)
[10] = dose: 12.5 mg/kg/injection, schedule: Q01DX009 (ip), vehicle: Klucel (hydroxypropylcellulose) (HPC)
[11] = dose: 25.0 mg/kg/injection, schedule: Q01DX009 (ip), vehicle: Klucel (hydroxypropylcellulose) (HPC)
[12] = dose: 25.0 mg/kg/injection, schedule: Q04DX003 (ip), vehicle: Klucel (hydroxypropylcellulose) (HPC)

`O=C1C=CC(=O)c2c(O)cccc21` was tested, and the T/C (dose: 1.56 mg/kg/injection, schedule: Q01DX009 (ip), vehicle: saline with Tween-80) was 90 % of control, the T/C (dose: 3.13 mg/kg/injection, schedule: Q01DX009 (ip), vehicle: saline with Tween-80) was 95 % of control and the T/C (dose: 6.25 mg/kg/injection, schedule: Q01DX009 (ip), vehicle: saline with Tween-80) was 95 % of control.
For `CN1CCN(C(=O)N2c3ccccc3Sc3ccccc32)CC1`, the T/C (dose: 12.5 mg/kg/injection, schedule: Q01DX009 (ip), vehicle: saline) was 100 % of control, the T/C (dose: 25.0 mg/kg/injection, schedule: Q01DX009 (ip), vehicle: saline) was 110 % of control and the T/C (dose: 50.0 mg/kg/injection, schedule: Q01DX009 (ip), vehicle: saline) was 100 % of control. The T/C [1] was 100 % of control.
With `Cc1ccc(O)cc1Cl` the T/C (dose: 100.0 mg/kg/injection, schedule: Q01DX009 (ip), vehicle: saline) was 96 % of control, the T/C (dose: 200.0 mg/kg/injection, schedule: Q01DX009 (ip), vehicle: saline) was 104 % of control and the T/C (dose: 400.0 mg/kg/injection, schedule: Q01DX009 (ip), vehicle: saline) was 104 % of control.
In the case of `O=C1CC(c2ccc(Cl)cc2)NC(c2ccc(Cl)cc2)C1` (stereo not given), the T/C [2] is reported as 101 % of control, the T/C [3] is reported as 107 % of control and the T/C (dose: 150.0 mg/kg/injection, schedule: Q01DX009 (ip), vehicle: saline with Tween-80) is reported as 111 % of control. For the same compound, the T/C [4] was 116 % of control, the T/C [5] was 100 % of control and the T/C [6] was 107 % of control.
With `O=C1CC=Nc2ccc([N+](=O)[O-])cc21` the T/C [7] was 100 % of control, the T/C [8] was 90 % of control and the T/C [9] was 95 % of control.
`C[N+]1(C)N=C([O-])N(CCCCCCN2C(=O)[N+](C)(C)N=C2[O-])C1=O` was tested, and the T/C (dose: 100.0 mg/kg/injection, schedule: Q04DX003 (ip), vehicle: suspension in saline) was 94 % of control, the T/C (dose: 200.0 mg/kg/injection, schedule: Q04DX003 (ip), vehicle: suspension in saline) was 96 % of control and the T/C (dose: 400.0 mg/kg/injection, schedule: Q04DX003 (ip), vehicle: suspension in saline) was 98 % of control.
`O=C(Nc1ccccc1C(F)(F)F)Nc1cccc2ccccc12` was tested, and the T/C (dose: 200.0 mg/kg/injection, schedule: Q01DX001 (ip), vehicle: saline with Tween-80) was 90 % of control and the T/C (dose: 400.0 mg/kg/injection, schedule: Q01DX001 (ip), vehicle: saline with Tween-80) was 86 % of control.
For `CCCCSCc1nc2nc(Cl)c(Cl)nc2[nH]1`, the T/C (dose: 50.0 mg/kg/injection, schedule: Q01DX009 (ip), vehicle: saline with Tween-80) was 110 % of control, the T/C [2] was 108 % of control and the T/C [3] was 109 % of control. The T/C [4] was 91 % of control, the T/C [5] was 95 % of control and the T/C (dose: 400.0 mg/kg/injection, schedule: Q01DX009 (ip), vehicle: saline with Tween-80) was 94 % of control. The T/C [6] was 95 % of control.
With `Cc1cccc(NC(=O)c2ccccc2C(=O)O)c1C` the T/C [7] was 91 % of control, the T/C [8] was 91 % of control and the T/C [9] was 100 % of control.
With `CCCCCCCCCCCCCCCCN(C)Cc1ccccc1` the T/C (dose: 100.0 mg/kg/injection, schedule: Q04DX003 (ip), vehicle: saline) was 107 % of control, the T/C [1] was 108 % of control and the T/C (dose: 400.0 mg/kg/injection, schedule: Q04DX003 (ip), vehicle: saline) was 116 % of control.
`C/C=C(\C)C(=O)OC1C(=O)OC2CC3C(C)=CC(=O)C(O)C3(C)C3C4(O)OCC23C1C(C)C4O` (stereo not given) was tested, and the T/C (dose: 0.06 mg/kg/injection, schedule: Q01DX009 (ip), vehicle: saline with Tween-80) was 89 % of control, the T/C (dose: 0.12 mg/kg/injection, schedule: Q01DX009 (ip), vehicle: saline with Tween-80) was 104 % of control and the T/C (dose: 0.25 mg/kg/injection, schedule: Q01DX009 (ip), vehicle: saline with Tween-80) was 98 % of control. The T/C (dose: 0.5 mg/kg/injection, schedule: Q01DX009 (ip), vehicle: saline with Tween-80) was 107 % of control, the T/C (dose: 1.0 mg/kg/injection, schedule: Q01DX009 (ip), vehicle: saline with Tween-80) was 103 % of control and the T/C (dose: 2.0 mg/kg/injection, schedule: Q01DX009 (ip), vehicle: saline with Tween-80) was 104 % of control. For the same compound, the T/C (dose: 4.0 mg/kg/injection, schedule: Q01DX009 (ip), vehicle: saline with Tween-80) was 110 % of control and the T/C (dose: 8.0 mg/kg/injection, schedule: Q01DX009 (ip), vehicle: saline with Tween-80) was 100 % of control.
With `COC(=O)c1cc([N+](=O)[O-])c(Cl)c([N+](=O)[O-])c1` the T/C (dose: 6.25 mg/kg/injection, schedule: Q01DX009 (ip), vehicle: Klucel (hydroxypropylcellulose) (HPC)) was 109 % of control, the T/C [10] was 104 % of control and the T/C [11] was 100 % of control. The T/C [12] was 100 % of control and the T/C (dose: 50.0 mg/kg/injection, schedule: Q04DX003 (ip), vehicle: Klucel (hydroxypropylcellulose) (HPC)) was 105 % of control.
`CC(=O)c1cccc([N+](=O)[O-])c1` was tested, and the T/C (dose: 100.0 mg/kg/injection, schedule: Q04DX003 (ip), vehicle: other) was 100 % of control, the T/C (dose: 200.0 mg/kg/injection, schedule: Q04DX003 (ip), vehicle: other) was 104 % of control and the T/C (dose: 400.0 mg/kg/injection, schedule: Q04DX003 (ip), vehicle: other) was 90 % of control.
`CCOC(=O)c1cc([N+](=O)[O-])c(C)s1` was tested, and the T/C (dose: 100.0 mg/kg/injection, schedule: Q01DX009 (sc), vehicle: olive oil, sesame oil, peanut oil) was 100 % of control, the T/C (dose: 100.0 mg/kg/injection, schedule: Q04DX003 (sc), vehicle: olive oil, sesame oil, peanut oil) was 95 % of control and the T/C (dose: 200.0 mg/kg/injection, schedule: Q01DX009 (sc), vehicle: olive oil, sesame oil, peanut oil) was 91 % of control. For the same compound, the T/C (dose: 200.0 mg/kg/injection, schedule: Q04DX003 (sc), vehicle: olive oil, sesame oil, peanut oil) was 95 % of control, the T/C (dose: 400.0 mg/kg/injection, schedule: Q01DX009 (sc), vehicle: olive oil, sesame oil, peanut oil) was 100 % of control and the T/C (dose: 400.0 mg/kg/injection, schedule: Q04DX003 (sc), vehicle: olive oil, sesame oil, peanut oil) was 100 % of control.
With `NC(=S)N/N=C/c1ccc(O)cn1` the T/C (dose: 18.8 mg/kg/injection, schedule: Q01DX009 (ip), vehicle: saline with Tween-80) was 189 % of control, the T/C (dose: 25.0 mg/kg/injection, schedule: Q01DX001 (ip), vehicle: Klucel (hydroxypropylcellulose) (HPC)) was 100 % of control and 109 % of control and the T/C (dose: 25.0 mg/kg/injection, schedule: Q01DX010 (ip), vehicle: saline) was 172 % of control. For the same compound, the T/C (dose: 25.0 mg/kg/injection, schedule: Q04DX002 (ip), vehicle: Klucel (hydroxypropylcellulose) (HPC)) was 103 % of control, the T/C [12] was 122 % of control and the T/C (dose: 37.5 mg/kg/injection, schedule: Q01DX009 (ip), vehicle: saline with Tween-80) was 219 % of control. For the same compound, the T/C (dose: 50.0 mg/kg/injection, schedule: Q01DX010 (ip), vehicle: saline) was 200 % of control, the T/C (dose: 75.0 mg/kg/injection, schedule: Q01DX009 (ip), vehicle: saline with Tween-80) was 178 % of control and the T/C (dose: 100.0 mg/kg/injection, schedule: Q01DX010 (ip), vehicle: saline) was 227 % of control. For the same compound, the T/C (dose: 200.0 mg/kg/injection, schedule: Q01DX010 (ip), vehicle: saline) was 100 % of control.
In the case of `Cc1ccnc(NC(=O)Nc2cc(Cl)ccc2Cl)c1`, the T/C [10] is reported as 101 % of control, the T/C [11] is reported as 103 % of control and the T/C (dose: 50.0 mg/kg/injection, schedule: Q01DX009 (ip), vehicle: Klucel (hydroxypropylcellulose) (HPC)) is reported as 120 % of control.
In the case of `COC1CC(N=[N+]=[N-])C(OC(=O)c2ccccc2)C(C)O1` (stereo not given), the T/C [2] is reported as 94 % of control, the T/C [3] is reported as 101 % of control and the T/C [5] is reported as 106 % of control. For the same compound, the T/C [6] was 106 % of control.
For `CCCCC[C@H](O)/C=C/[C@@H]1[C@@H](C/C=C\CCCC(=O)O)[C@@H](O)C[C@H]1O`, the T/C (dose: 0.25 mg/kg/injection, schedule: Q#A X020 (ip), vehicle: saline) was 110 % of control, the T/C (dose: 0.5 mg/kg/injection, schedule: Q#A X020 (ip), vehicle: saline) was 101 % of control and the T/C (dose: 1.0 mg/kg/injection, schedule: Q#A X020 (ip), vehicle: saline) was 100 % of control. For the same compound, the T/C (dose: 2.5 mg/kg/injection, schedule: Q04DX003 (ip), vehicle: saline with Tween-80) was 94 % of control, the T/C (dose: 5.0 mg/kg/injection, schedule: Q04DX002 (ip), vehicle: saline) was 97 % of control and the T/C (dose: 10.0 mg/kg/injection, schedule: Q04DX003 (ip), vehicle: saline with Tween-80) was 105 % of control. For the same compound, the T/C (dose: 20.0 mg/kg/injection, schedule: Q04DX002 (ip), vehicle: saline) was 105 % of control, the T/C (dose: 40.0 mg/kg/injection, schedule: Q04DX002 (ip), vehicle: saline) was 105 % of control and the T/C (dose: 80.0 mg/kg/injection, schedule: Q04DX002 (ip), vehicle: saline) was 97 % of control.
